Data taken from patent US12037583B2, “Compositions and methods for immunooncology” (Novartis AG, priority 2015, dated 2024).

Assays:
[1] = tested on: TRAC; experiment: Editing of TRAC by dgRNAs in HEK cells stably expressing Cas9 (NGS); assay type: cell-based, human; conditions: dgRNA delivered to HEK cells stably expressing Cas9, target TRAC, mean of at least 3 experiments
From the text: (§1) FIG. 12: Mean (n≥3) editing of CRISPR systems with dgRNAs as indicated to TRAC in HEK cells (stably expressing Cas9) or primary human CD3+ T cells (delivery of dgRNA:Cas9 RNP by electroporation).

[2] = tested on: TRAC locus; experiment: Genomic editing of the TRAC locus in primary human CD3+ T cells by RNP electroporation (NGS: % indels, % frameshift edits, indel pattern); assay type: cell-based; conditions: dgRNA/Cas9 RNP by electroporation, target TRAC; for mean FS edit (%): frameshift edits in primary human CD3+ T cells; for mean total % edit: primary human CD3+ T cells, mean of at least 3 experiments;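 on all read-outs here: total edit is the insertion or deletion frequency at TRAC, and the frameshift value is the share of those indels that shift the coding frame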
From the text: as §1
FIG. 33C: Genomic editing of the TRAC locus resulting from human primary T cell electroporation with RNP containing the indicated gRNA targeting the TRAC locus is shown. The frequency of insertions or deletions is indicated (% indels) and the percentage of these edits that result in frameshifting of the coding sequence is shown (% frameshift edits).
Data for each experiment are the average from triplicate PCR products.

[3] = tested on: PDCD1; experiment: NGS editing of PDCD1 by dgRNA in HEK cells stably expressing Cas9; assay type: cell-based, human; conditions: at least 3 experiments;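 further: dgRNA lipofected into Cas9-expressing HEK cells, lysed after 24 h, target amplicon sequenced, editing = reads carrying insertions or deletions as percent of all reads including wild type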
From the text: Transfection of Cas9GFP-expressing HEK293 cells (HEK-293_Cas9GFP) was used for primary screening of target specific crRNAs. […] Selected crRNAs were chemically synthesized and delivered in a 96 well format. HEK-293-Cas9GFP cells were transfected with target crRNAs comprising a flagpole region of SEQ ID NO: 6607 in a 1:1 ratio with stock trRNA of SEQ ID NO: 6660. The transfection was mediated using lipofection technology according to manufacturer's protocol (DharmaFECT Duo, GE LifeSciences; or RNAiMax, LifeTechnologies). Transfected cells were lysed 24 h following lipofection and editing (e.g., cleavage) was detected within lysates with the T7E1 assay and/or next generation sequencing (NGS; below).
PCR primers were first designed around the target site, and the genomic area of interest PCR amplified. Additional PCR was performed according to manufacturer's protocols (Illumina) to add the necessary chemistry for sequencing. The amplicons were then sequenced on an Illumina MiSeq instrument. The reads were then aligned to the human reference genome (e.g., hg38) after eliminating those having low quality scores. From the resulting files containing the reads mapped to the reference genome (BAM files), reads which overlap the target region of interest were selected and the number of wild type reads versus the number of reads which contain an insertion or deletion was calculated. The editing percentage was then defined as the total number of reads with insertions or deletions over the total number of reads, including wild type. To determine the pattern of insertions and/or deletions that resulted from the edit, the aligned reads with indels were selected and the number of a reads with a given indel were summed.
Editing of CRISPR systems containing dgRNA molecules comprising targeting domains to sequences of PDCD1 were tested for editing in HEK (gRNA delivered to cells stably expressing Cas9) and CD3+ T cells (gRNA and Cas9 delivered as RNP) according to the methods described herein.
All mean editing % are as measured by NGS and are based on at least 3 experiments.

Substance | mean % edit [1] [%] | mean FS edit (%) [2] [%] | mean total % edit [2] [%] | HEK (NGS) % Editing Mean [3] [%]
AAAGCUGCCCUUACCUGGGC (chemistry not given here; listed as Homo sapiens) [CR000976] | 2.8 | 1.7 | 1.8 | –
AACAAAUGUGUCACAAAGUA (chemistry not given here; listed as Homo sapiens) [CR000966] | 65.2 | 21.0 | 22.0 | –
AACGAGAAUCAUCUGCCUGC (chemistry not given here; listed as Homo sapiens) [CR000945] | 32.3 | 2.2 | 2.3 | –
AAGGUUCAGAUCAGAAGAGG (chemistry not given here; listed as Homo sapiens) [CR000921] | 58.3 | 11.3 | 12.7 | –
ACAAGUGCCCACAGGAAGCC (chemistry not given here; listed as Homo sapiens) [CR000930] | 12.2 | 7.1 | 9.9 | –
ACCAACUCACACAUACAGCC (chemistry not given here; listed as Homo sapiens) [CR000949] | 30.2 | 2.5 | 2.5 | –
ACCAGAGAUGUCUGUGCAGG (targeting domain within guide RNA, chemistry not given here, further chemistry not given here; listed as Homo sapiens) [CR000935] | 54.2 | – | – | –
ACCCGGCCACUUUCAGGAGG (chemistry not given here; listed as Homo sapiens) [CR000989] | 54.5 | 18.2 | 28.2 | –
AGAGCAACAGUGCUGUGGCC (chemistry not given here; listed as Homo sapiens) [CR000970] | 13.4 | 9.3 | 10.9 | –
AGAGUGAUUAUUAUUUAUUC (chemistry not given here; listed as Homo sapiens) [CR000941] | 33.4 | 7.6 | 9.6 | –
AGCAGCUUUCACCUCCUUGG (chemistry not given here; listed as Homo sapiens) [CR001009] | 65.3 | 22.8 | 27.3 | –
AGGAAGGAGCGAGGGAGCAC (chemistry not given here; listed as Homo sapiens) [CR000996] | 52.3 | 8.6 | 11.1 | –
AGGCUUCUCACCCUGCAGCA (chemistry not given here; listed as Homo sapiens) [CR000923] | 67.4 | 32.7 | 37.3 | –
AGUUGGUGGCAUUGCCGGGG (chemistry not given here; listed as Homo sapiens) [CR001015] | 35.9 | 20.4 | 21.8 | –
AUAUGUGCAGCUCAGGGUCA (chemistry not given here; listed as Homo sapiens) [CR000937] | 50.9 | 10.8 | 15.8 | –
AUCCUCCUCCUGAAAGUGGC (chemistry not given here; listed as Homo sapiens) [CR000987] | 39.6 | 18.2 | 20.6 | –
CAAUGCAGAGGAAGGAGCGA (chemistry not given here; listed as Homo sapiens) [CR000997] | 11.6 | 6.4 | 6.7 | –
CR000898: dgRNA targeting domain to PDCD1 (guide CAGUUCCAAACCCUGGUGGU; targeting domain within dual guide RNA, chemistry not given here, further chemistry not given here; listed as Homo sapiens) | – | – | – | 11
CR000899: dgRNA targeting domain to PDCD1 (guide CGACACCAACCACCAGGGUU; targeting domain within dual guide RNA, chemistry not given here, further chemistry not given here; listed as Homo sapiens) | – | – | – | 5
CR000903: dgRNA targeting domain to PDCD1 (guide CGCCCACGACACCAACCACC; targeting domain within dual guide RNA, chemistry not given here, further chemistry not given here; listed as Homo sapiens) | – | – | – | 54
CR000904: dgRNA targeting domain to PDCD1 (guide CUGGUGGUUGGUGUCGUGGG; targeting domain within dual guide RNA, chemistry not given here, further chemistry not given here; listed as Homo sapiens) | – | – | – | 70
CR000914: dgRNA targeting domain to PDCD1 (guide CUGCAGGGACAAUAGGAGCC; targeting domain within dual guide RNA, chemistry not given here, further chemistry not given here; listed as Homo sapiens) | – | – | – | 5
CR000915: dgRNA targeting domain to PDCD1 (guide ACAAUAGGAGCCAGGCGCAC; targeting domain within dual guide RNA, chemistry not given here, further chemistry not given here; listed as Homo sapiens) | – | – | – | 35
CR000916: dgRNA targeting domain to PDCD1 (guide CAGGGGCUGGCCGGUGCGCC; targeting domain within dual guide RNA, chemistry not given here, further chemistry not given here; listed as Homo sapiens) | – | – | – | 5
CR000917: dgRNA targeting domain to PDCD1 (guide AAAAGAGUGAGACUCACCAG; targeting domain within dual guide RNA, chemistry not given here, further chemistry not given here; listed as Homo sapiens) | – | – | – | 43
CR000918: dgRNA targeting domain to PDCD1 (guide GAAAAGAGUGAGACUCACCA; targeting domain within dual guide RNA, chemistry not given here, further chemistry not given here; listed as Homo sapiens) | – | – | – | 50
CR000919: dgRNA targeting domain to PDCD1 (guide GGAAAAGAGUGAGACUCACC; targeting domain within dual guide RNA, chemistry not given here, further chemistry not given here; listed as Homo sapiens) | – | – | – | 42
GCCUCCUGCACAGACAUCUC (targeting domain within guide RNA, chemistry not given here, further chemistry not given here; listed as Homo sapiens) [CR000936] | 59.7 | – | – | –
